From US9801919B2, “Oral compositions containing enhanced antibacterial combinations of antioxidants and extracts of magnolia” (WM. WRIGLEY JR. COMPANY, priority 2008, dated 2017)

How the values were obtained:
S. mutans [1] = assay: MIC and FIC of MBE and common antioxidants against S. mutans (broth two-fold dilution); assay type: cell-based, Streptococcus mutans; conditions: sample alone, lowest concentration with no visible growth, aerobic 37° C., 1 to 2 days; for MIC: Streptococcus mutans
Experimental: (§1) To evaluate an enhanced effect of an active ingredient in combination of magnolia with antioxidant, the fractional inhibitory index (FIC) is computed according to equation (1): […]
The following tests were conducted on S. mutans.
BHA, gallic acid, octyl gallate and magnolia bark extract (MBE) sample were dissolved in ethanol to produce 1-10% working solution and was added to a nutrient broth and shaken well and was diluted two-fold in individual test tubes. A total of 0.2 milliliter (mL) of inoculated bacteria culture purchased from American Type Culture Collection (ATCC) was added to each test tube. The tubes were incubated aerobically at 37° C. for 1 to 2 days. […] FIC values were determined by equation 1.

S. sobrinus = assay: MIC and FIC of MBE and common antioxidants against S. sobrinus (broth two-fold dilution); assay type: cell-based, Streptococcus sobrinus; conditions: sample alone, lowest concentration with no visible growth, aerobic 37° C., 1-2 days; for MIC: Streptococcus sobrinus
Experimental: as §1
S. Sobrinus, another common pathogen associated with dental plaque is also associated with dental caries.
BHA, BHT, gallic acid, octyl gallate and magnolia bark extract (MBE) samples were dissolved in ethanol to produce 1-10% working solution and was added to a nutrient broth and shaken well and was diluted two-fold in individual test tubes A total of 0.2 mL of inoculated bacteria culture purchased from ATCC was added to each test tube. The tubes were incubated aerobically at 37° C. for 1-2 days.

S. mutans [2] = conditions: active principles of Magnolia Cortex extracts; cited from earlier work

MIC (S. sobrinus) | Structure (SMILES) | bactericidal against S. mutans in in vitro MIC test (S. mutans [2]) | other results
> 2000 µg/mL | O=C(O)c1cc(O)c(O)c(O)c1 [Gallic acid] | – | MIC (S. mutans [1]): > 2000 µg/mL
– | COc1ccc(O)c(C(C)(C)C)c1 [BHA, butylated hydroxyanisole] | – | MIC (ppm) (S. mutans [1]): 250 ppm; MIC (ppm) (S. sobrinus): 500 ppm
– | C=CCc1ccc(O)c(-c2ccc(O)c(CC=C)c2)c1 [honokiol] | bactericidal | –
– | CCCc1ccc(O)c(-c2ccc(O)c(CCC)c2)c1 [tetrahydrohonokiol] | bactericidal | –
– | CCCc1ccc(O)c(-c2cc(CCC)ccc2O)c1 [tetrahydromagnolol] | bactericidal | –
250 µg/mL | CCCCCCCCOC(=O)c1cc(O)c(O)c(O)c1 [Octyl gallate] | – | MIC (S. mutans [1]): 250 µg/mL
– | C=CCc1ccc(O)c(-c2cc(CC=C)ccc2O)c1 [magnolol] | bactericidal | –
> 2000 µg/mL | Cc1cc(C(C)(C)C)c(O)c(C(C)(C)C)c1 [BHT, butylated hydroxytoluene] | – | –
